Source: patent US20130230460A1, “USE OF CYANINE DYES FOR THE DETECTION OF TAU FOR DIAGNOSIS OF EARLY-STAGE TAUOPATHIES” (GE HEALTHCARE LIMITED, priority 2010, published 2013)

Key:
insoluble tau aggregates = conditions: J Med Chem, 2009, 52, 3539; cited from earlier work
Aβ1-40 aggregates = target: T1, Aβ1-40 aggregates (Homo sapiens, UniProt P05067); experiment: In vitro binding assay with aggregated Aβ1-40 (fluorescence); conditions: aggregated Aβ1-40 10 μg/sample, 1 h at RT, triplicate
T1 construct: Aβ1-40 protein (4.3 kDa, 1 mg/ml, Invitrogen); purchased Invitrogen
Protocol: (§1) Aβ1-40 protein (4.3 kDa, 1 mg/ml, Invitrogen) was incubated at room temperature (RT) for 72 h with continuous shaking to generate Aβ1-40 aggregates. The two test compounds 18 (see Example 6) and 20 (see Example 5), were dissolved and serially diluted in DMSO. Samples with aggregated tau and Aβ1-40 (10 μg/sample) were incubated with a serial dilution of each test compound (concentration range 1 nM-100 μM) in 96-well plates for 1 h at RT. Following incubation, samples were transferred to spin column plates (Thermo Fisher) and then centrifugated for 2 min at 1,500×g to remove free compound from the samples. Finally, the samples were transferred to black 96-well plates, and the fluorescence intensity measured at […] using a Tecan plate reader. All experiments were performed in triplicate. Kd values for each compound was calculated by fitting the data to a non-linear binding curve using Prism (GraphPad).

tau aggregates (Tau-412) = target: T2, tau aggregates (Tau-412) (Homo sapiens, UniProt P10636); experiment: In vitro binding assay with aggregated tau (fluorescence); conditions: for Kd: aggregated tau 10 μg/sample, 1 h at RT, triplicate; for Selectivity Tau: Aβ1-40: ratio of Kd Aβ1-40 to Kd tau
T2 construct: purchased Stratech
Protocol: Tau protein (Tau-412 with 2 nucleotide-binding motifs and 4 repeat binding regions, 42.9 kDa, 1 mg/ml, Stratech) was incubated in the presence of heparin (0.1 mg/ml) for 72 h at 37° C. with continuous shaking to generate tau aggregates.
as §1, with “The” for “Aβ1-40 protein (4.3 kDa, 1 mg/ml, Invitrogen) was incubated at room temperature (RT) for 72 h with continuous shaking to generate Aβ1-40 aggregates. The”

T2 sequence (P10636 1-412 isoform P10636-7): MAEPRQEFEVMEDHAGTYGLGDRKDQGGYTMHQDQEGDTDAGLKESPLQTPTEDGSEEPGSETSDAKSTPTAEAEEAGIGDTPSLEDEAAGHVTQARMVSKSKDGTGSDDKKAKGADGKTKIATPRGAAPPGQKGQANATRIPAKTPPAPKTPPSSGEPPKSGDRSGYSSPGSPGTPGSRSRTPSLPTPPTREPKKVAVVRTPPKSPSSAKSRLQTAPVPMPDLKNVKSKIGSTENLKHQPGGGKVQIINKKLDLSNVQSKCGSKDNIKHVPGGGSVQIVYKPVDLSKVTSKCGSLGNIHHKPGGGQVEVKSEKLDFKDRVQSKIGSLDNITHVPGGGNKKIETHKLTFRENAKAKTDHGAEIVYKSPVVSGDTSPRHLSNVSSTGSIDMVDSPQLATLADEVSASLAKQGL
T1 sequence (P05067 672-711 limits assumed): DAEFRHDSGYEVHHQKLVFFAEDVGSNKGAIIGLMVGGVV

| SMILES | Tau aggregation inhibition (in words) (insoluble tau aggregates) | Kd (Aβ1-40 aggregates) [µM] | Selectivity for aggregated tau compared to Aβ1-40 aggregates (in words) (tau aggregates (Tau-412)) | Kd (tau aggregates (Tau-412)) [µM] | Selectivity Tau: Aβ1-40 (tau aggregates (Tau-412)) |
| --- | --- | --- | --- | --- | --- |
| CCC(/C=C1\Sc2ccc(OC)cc2N1CCO)=C\c1sc2ccc(OC)cc2[n+]1CCO [Compound N744] | potent tau aggregation inhibitors | – | – | – | – |
| COc1ccc2c(c1)N(CCO)/C(=C/C(C)=C/c1sc3ccc(OC)cc3[n+]1CCF)S2 [Compound 20, 3-(2-Fluoroethyl)-2-((1E,3Z)-3-(3-(2-hydroxyethyl)-5-methoxybenzo[d]thiazol-2(3H)-ylidene)-2-methylprop-1-en-1-yl)-5-methoxybenzo[d]thiazol-3-ium] | – | 15.6 ± 8.1 | highly selective | 0.00075 ± 0.00059 | 20,800 |
| COc1ccc2c(c1)N(CCF)/C(=C/C(C)=C/c1sc3ccc(OC)cc3[n+]1CCF)S2 [Compound 18, 3-(2-Fluoroethyl)-2-((1E,3Z)-3-(3-(2-fluoroethyl)-5-methoxybenzo[d]thiazol-2(3H)-ylidene)-2-methylprop-1-en-1-yl)-5-methoxybenzo[d]thiazol-3-ium] | – | 29.8 ± 21.3 | highly selective | 0.00088 ± 0.0009 | 33,863 |
